Experimental data: the supplement of paper PMC11208160

Test: recombinant barcode read abundance after kanamycin selection (control-corrected) (log10(CPM+1)); higher = more efficient recombination; sequences stand for … in AGTGCAGAGAAAATCGGCCAGTTTTCTCTGCCTGCAGTCCGCATGCCGT…AGATTTATGCAGCGGACTGCCTTTCTCCCAAAGTGATAAACCGGACAGTATCATGGACCGGTTTTCCCGGTAATCCGTATTTGCAAGGTTGGTTTCACT; site = the 11-nt target
Procedure, shortened: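 Recombination efficiency comes from barcode counts at recombinant junctions, converted to counts per million, averaged and corrected against the control. Values appear as log10(CPM+1). They were obtained from a pooled E. coli screen in which each oligo paired a target with an IS621 bridge RNA target-binding loop, and cells were plated in duplicate on chloramphenicol/ampicillin LB agar or on chloramphenicol/ampicillin/kanamycin with 0.1 mM IPTG.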
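Note: IS621 recombinase and bridge RNA in Escherichia coli cells.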

Sequence | recombinant barcode read abundance (log10)
GCAAGTACTTGGGTTCTAACCTGTTGCAG (site AGGTTAGCTTA) | 0.106
GCAAGTACTTGGGTTCTAACCTGTTGCAG (site GCAAGTACTCT) | 1.95
GCACAGACTTGGGTTCTAACCTGTTGCCT (site GCAAAGCCTAG) | 0.207
GCACAGACTTGGGTTCTAACCTGTTGCCT (site GCACAGACTAG) | 2.09
GCACAGTCTTGGGTTCTAACCTGTTGCTT (site CCATAGTCTAA) | 0.0514
GCACAGTCTTGGGTTCTAACCTGTTGCTT (site GCACAGTCTAA) | 1.93
GCACGAACTTGGGTTCTAACCTGTTGCCT (site GCACGAACTAG) | 1
GCACGAACTTGGGTTCTAACCTGTTGCCT (site GCCCGAACTAG) | 0.133
GCACGAACTTGGGTTCTAACCTGTTGCCT (site GCGCGAACTAG) | 0.0581
GCACGAACTTGGGTTCTAACCTGTTGCCT (site GCTCGAACTAG) | 0.0171
GCACTACCTTGGGTTCTAACCTGTTGCCT (site GCACAACCTAG) | 0.0611
GCACTACCTTGGGTTCTAACCTGTTGCCT (site GCACCACCTAG) | 0.534
GCACTACCTTGGGTTCTAACCTGTTGCCT (site GCACGACCTAG) | 0.166
GCACTACCTTGGGTTCTAACCTGTTGCCT (site GCACTACCTAG) | 1.37
GCACTGCCTTGGGTTCTAACCTGTTGCCT (site GCACTGCCTAG) | 1.31
GCACTGCCTTGGGTTCTAACCTGTTGCCT (site GCCCTGCCTAG) | 0.233
GCAGCGACTTGGGTTCTAACCTGTTGCCT (site GCAGCGACTAG) | 1.78
GCAGCGACTTGGGTTCTAACCTGTTGCCT (site GCCGCGACTAG) | 0.148
GCAGCGACTTGGGTTCTAACCTGTTGCCT (site GCGGCGACTAG) | 0.277
GCAGCGACTTGGGTTCTAACCTGTTGCCT (site GCTGCGACTAG) | 0.194
GCAGGGTCTTGGGTTCTAACCTGTTGCTT (site GCAGGGTCTAA) | 2.4
GCAGGGTCTTGGGTTCTAACCTGTTGCTT (site GCCGGGTCTAA) | 0.658

Sequence | recombinant barcode read abundance (log10)
GCAGGGTCTTGGGTTCTAACCTGTTGCTT (site GCGGGGTCTAA) | 0.646
GCAGGGTCTTGGGTTCTAACCTGTTGCTT (site GCTGGGTCTAA) | 0.355
GCAGGTCCTTGGGTTCTAACCTGTTGCCT (site GCAGGTCCTAG) | 0.788
GCAGGTCCTTGGGTTCTAACCTGTTGCCT (site GCCGGTCCTAG) | 0.512
GCAGGTCCTTGGGTTCTAACCTGTTGCCT (site GCGGGTCCTAG) | 0.744
GCAGGTCCTTGGGTTCTAACCTGTTGCCT (site GCTGGTCCTAG) | 0.397
GCAGTAGCTTGGGTTCTAACCTGTTGCCA (site CCGGTAGCTTG) | 0.188
GCAGTAGCTTGGGTTCTAACCTGTTGCCA (site GCAGTAGCTTG) | 0.382
GCATATACTTGGGTTCTAACCTGTTGCGT (site AGTCCCGCTTG) | 0
GCATATACTTGGGTTCTAACCTGTTGCGT (site GCATATACTAC) | 2.15
GCATCGGCTTGGGTTCTAACCTGTTGCCT (site GCATCGGCTAG) | 1.22
GCATCGGCTTGGGTTCTAACCTGTTGCCT (site GCCTCGGCTAG) | 0.0153
GCATCGGCTTGGGTTCTAACCTGTTGCCT (site GCGTCGGCTAG) | 0.0974
GCATCGGCTTGGGTTCTAACCTGTTGCCT (site GCTTCGGCTAG) | 0.0102
GCATGACCTTGGGTTCTAACCTGTTGCAG (site CACAATACTAG) | 0.343
GCATGACCTTGGGTTCTAACCTGTTGCAG (site GCATGACCTCT) | 1.23
GCATGGACTTGGGTTCTAACCTGTTGCAG (site GCAAGGACTCT) | 0.878
GCATGGACTTGGGTTCTAACCTGTTGCAG (site GCACGGACTCT) | 1.92
GCATGGACTTGGGTTCTAACCTGTTGCAG (site GCAGGGACTCT) | 0.241
GCATGGACTTGGGTTCTAACCTGTTGCAG (site GCATGGACTCT) | 2.24
GCCAACCCTTGGGTTCTAACCTGTTGCCT (site GCCAACCCTAA) | 0.111
GCCAACCCTTGGGTTCTAACCTGTTGCCT (site GCCAACCCTAC) | 0.0192

Sequence | recombinant barcode read abundance (log10)
GCCAACCCTTGGGTTCTAACCTGTTGCCT (site GCCAACCCTAG) | 0.326
GCCAACCCTTGGGTTCTAACCTGTTGCCT (site GCCAACCCTAT) | 0.0781
GCCAAGCCTTGGGTTCTAACCTGTTGCTG (site GCCAAGCCTCA) | 0.257
GCCAAGCCTTGGGTTCTAACCTGTTGCTG (site TCCAACCCTCA) | 0.0182
GCCAAGGCTTGGGTTCTAACCTGTTGCCT (site AGTTTCACTTA) | 0.0355
GCCAAGGCTTGGGTTCTAACCTGTTGCCT (site GCCAAGGCTAG) | 0.407
GCCACGCCTTGGGTTCTAACCTGTTGCAG (site GCCACGCCTCT) | 0.115
GCCACGCCTTGGGTTCTAACCTGTTGCAG (site GCCCCGCCTCT) | 0.0522
GCCACGCCTTGGGTTCTAACCTGTTGCAG (site GCCGCGCCTCT) | 0.053
GCCACGCCTTGGGTTCTAACCTGTTGCAG (site GCCTCGCCTCT) | 0.389
GCCATGTCTTGGGTTCTAACCTGTTGCTA (site ACCTTGTCTTA) | 0.0829
GCCATGTCTTGGGTTCTAACCTGTTGCTA (site GCCATGTCTTA) | 0.145
GCCCGTCCTTGGGTTCTAACCTGTTGCCG (site CTCCGTCCTCG) | 0.116
GCCCGTCCTTGGGTTCTAACCTGTTGCCG (site GCCCGTCCTCG) | 1
GCCGAGTCTTGGGTTCTAACCTGTTGCCT (site GCCGAGTCTAG) | 1.03
GCCGAGTCTTGGGTTCTAACCTGTTGCCT (site GCCGAGTCTGT) | 0.142
GCCGAGTCTTGGGTTCTAACCTGTTGCTG (site GCCGAGTCTAA) | 0.11
GCCGAGTCTTGGGTTCTAACCTGTTGCTG (site GCCGAGTCTCA) | 0.564
GCCGAGTCTTGGGTTCTAACCTGTTGCTG (site GCCGAGTCTGA) | 0
GCCGAGTCTTGGGTTCTAACCTGTTGCTG (site GCCGAGTCTTA) | 0.219
GCCGGGTCTTGGGTTCTAACCTGTTGCTT (site GCAGGGTCTAA) | 1.26
GCCGGGTCTTGGGTTCTAACCTGTTGCTT (site GCCGGGTCTAA) | 0.812

Sequence | recombinant barcode read abundance (log10)
GCCGGGTCTTGGGTTCTAACCTGTTGCTT (site GCGGGGTCTAA) | 0.092
GCCGGGTCTTGGGTTCTAACCTGTTGCTT (site GCTGGGTCTAA) | 0.337
GCCGGTCCTTGGGTTCTAACCTGTTGCCT (site GCAGGTCCTAG) | 0.522
GCCGGTCCTTGGGTTCTAACCTGTTGCCT (site GCCGGTCCTAG) | 0.549
GCCGGTCCTTGGGTTCTAACCTGTTGCCT (site GCGGGTCCTAG) | 0.451
GCCGGTCCTTGGGTTCTAACCTGTTGCCT (site GCTGGTCCTAG) | 0.14
GCCGTAGCTTGGGTTCTAACCTGTTGCCT (site GACGTAGCTAG) | 0.0542
GCCGTAGCTTGGGTTCTAACCTGTTGCCT (site GCCGTAGCTAG) | 0.0284
GCCGTAGCTTGGGTTCTAACCTGTTGCCT (site GGCGTAGCTAG) | 0.163
GCCGTAGCTTGGGTTCTAACCTGTTGCCT (site GTCGTAGCTAG) | 0.00812
GCCTGCCCTTGGGTTCTAACCTGTTGCCT (site GACTGCCCTAG) | 0.0828
GCCTGCCCTTGGGTTCTAACCTGTTGCCT (site GCCTGCCCTAG) | 0.892
GCCTGCCCTTGGGTTCTAACCTGTTGCCT (site GGCTGCCCTAG) | 0.0211
GCCTGCCCTTGGGTTCTAACCTGTTGCCT (site GTCTGCCCTAG) | 0.0318
GCGAACCCTTGGGTTCTAACCTGTTGCGG (site GCGAACCCTCC) | 0.967
GCGAACCCTTGGGTTCTAACCTGTTGCGG (site GCTAACCCTAC) | 0.0412
GCGACATCTTGGGTTCTAACCTGTTGCCT (site GCGACATCTAG) | 0.428
GCGACATCTTGGGTTCTAACCTGTTGCCT (site TAAGATGCTCC) | 0.162
GCGCGCCCTTGGGTTCTAACCTGTTGCTG (site GCGCGCCCTCA) | 0.331
GCGCGCCCTTGGGTTCTAACCTGTTGCTG (site GCGCGCCCTCC) | 0.0616
